Results taken from patent US20130131321A1, “LIGANDS FOR ANTIBODY AND Fc-FUSION PROTEIN PURIFICATION BY AFFINITY CHROMATOGRAPHY” (GRAFFINITY PHARMACEUTICALS GMBH, priority 2010, published 2013).
Where two headings read alike, the source gives them in different places.

Key:
Bevacizumab [1] = target: T1, Bevacizumab (Homo sapiens, UniProt P01857); assay: Microtiter plate chromatography of resins, Bevacizumab whole IgG (bound, yield, selectivity); type: binding, humanized; details: for Bevacizumab IgG Bound (%): fraction of whole IgG Bevacizumab bound to resin; for Bevacizumab IgG Yield (%): mass of whole IgG Bevacizumab eluted / mass injected
T1 construct: fused on or other part: humanised anti-VEGF-A VH domain N-terminal of the gamma-1 constant region (engineered, no UniProt entry)
Description: (§1) Resins were assessed in packed mode by microtiter plate chromatography. For each column, approximately 30 μl of resin were transferred to a 384-well filter plate and sealed with appropriate top frits.
(§2) Columns were equilibrated with 6.7 column volumes (cv) of phosphate buffered saline (0.15 M NaCl, 20 mM sodium phosphate, pH 7.3; PBS) prior to injection. Either 3.3 cv of whole IgGs dissolved at 0.75 mg ml^−1, Fab or Fc fragments dissolved at 0.25 mg ml^−1 (all three in PBS) or host cell proteins (HCP) were injected onto columns. Antibody fragments of Bevacizumab (Fab and Fc) were prepared by cleavage of whole IgG with papain protease (3) according to the protocol of the manufacturer. […] Volumes transferred were spun through columns at 50 g for 1-2 min. During injection of samples, acceleration was reduced to 10 g and centrifugation time increased to 5-10 min. Effluent fractions were collected in 384-well plates and concentrations of protein analyzed by Bradford assay. Protein masses mi, mft and me (see below) were calculated as the product of fraction volume and measured protein concentration.
(§3) The fraction of ‘bound’ protein was calculated as the difference between the total mass of protein injected mi and the mass of protein detected in the flowthrough mft, divided by the total mass of protein injected.
(§4) The ‘yield’ of protein was calculated as the mass of protein eluted me, divided by the mass of protein injected mi.
(§5) The ‘selectivity’ of resins was calculated as the fraction of bound antibody BAb, divided by the fraction of bound host cell proteins BHCP.
(§6) the fraction of ‘bound’ protein and the ‘yield’ of protein were calculated for each resin based on data for whole IgG-antibodies. In the case of Bevacizumab fragments and host cell proteins, only the fraction of ‘bound’ protein is given. Selectivity of resins was calculated from data for Bevacizumab Whole IgG and host cell proteins. Due to limited experimental precision, selectivity was truncated beyond values of 10.

Bevacizumab [2] = assay: as above; type: binding, humanized
Description: as §1, §2, §3, §4, §5, §6

Tocilizumab = assay: Microtiter plate chromatography of resins, Tocilizumab (bound, yield); type: binding, humanized
Description: as §1, §2, §3, §4, §6

Palivizumab = assay: Microtiter plate chromatography of resins, Palivizumab (bound, yield); type: binding, humanized
Description: as §1, §2, §3, §4, §6

[3] = system: human poly-IgG (h-poly-IgG); assay: Microtiter plate chromatography of resins, human poly-IgG (bound, yield); type: binding
Description: as §1, §2, §3, §4, §6

host cell proteins (HCP) = assay: Microtiter plate chromatography of resins, host cell proteins (bound); type: binding, CHO; details: host cell proteins
Description: Flowthrough from protein A chromatography (referred to as host cell proteins) was derived from the supernatant of antibody-producing CHO cell culture in serum-free medium.
as §1, §2, §3, §6

[4] = fraction of bound Bevacizumab whole IgG / fraction of bound HCP, truncated beyond values of 10

| Compound | Bevacizumab IgG Bound (%) (Bevacizumab [1]) | Bevacizumab IgG Yield (%) (Bevacizumab [1]) | Selectivity (Bevacizumab [2]) | Tocilizumab Bound (%) (Tocilizumab) | Tocilizumab Yield (%) (Tocilizumab) | Palivizumab Bound (%) (Palivizumab) | Palivizumab Yield (%) (Palivizumab) | h-poly-IgG Bound (%) [3] [%] | h-poly-IgG Yield (%) [3] [%] | HCP Bound (%) (host cell proteins (HCP)) | Selectivity (Bevacizumab [2]; [4]) |
| --- | --- | --- | --- | --- | --- | --- | --- | --- | --- | --- | --- |
| COc1ccc(NC(=O)c2nn(CC(O)CO)c3ccccc23)cc1C(=O)NCCCN (racemic) [Ligand L40, (RS)-5-[1-(2,3-Dihydroxy-1-propyl)indazol-3-ylcarboxamido]-2-methoxybenzoic acid (3-amino-1-propyl)amide] | 100 | 100 | 4.5 | 90 | 90 | 62 | 62 | 98 | 97 | 22 |  |
| COc1ccc(NC(=O)c2cc(-c3cc(C)sc3C)n(C)n2)cc1C(=O)NCCCN [Ligand L3, 5-[5-(2,5-Dimethyl-3-thienyl)-1-methylpyrazol-3-yl]carboxamido-2-methoxybenzoic acid N-(3-aminopropyl)amide] | 100 | 89 | 1.4 | 97 | 95 | 100 | 93 | 102 | 72 | 62 |  |
| COc1ccc(NC(=O)c2cc(-c3cccc(Cl)c3)n(C)n2)cc1C(=O)NCCCN [Ligand L7, 5-[5-(3-Chlorophenyl)-1-methylpyrazol-3-yl]carboxamido-2-methoxybenzoic acid N-(3-aminopropyl)amide] | 100 | 110 | 1.4 | 92 | 109 | 100 | 99 | 100 | 91 | 70 |  |
| Cc1c(NC(=O)c2cc(-c3cccs3)n(C)n2)cccc1C(=O)NCCCN [Ligand L9, 2-Methyl-3-[1-methyl-5-(2-thienyl)pyrazol-3-yl]carboxamidobenzoic acid N-(3-aminopropyl)amide] | 100 | 91 | 1.7 | 71 | 64 | 41 | 33 | 65 | 53 | 58 |  |
| Cc1ccc(C(=O)NCCCN)cc1NC(=O)c1cc(-c2cccs2)n(C)n1 [Ligand L10, 4-Methyl-3-[1-methyl-5-(2-thienyl)pyrazol-3-yl]carboxamidobenzoic acid N-(3-aminopropyl)amide] | 100 | 91 | 1.5 | 86 | 73 | 59 | 62 | 72 | 60 | 68 |  |
| COc1ccc(NC(=O)c2cncc(-c3ccccc3)c2)cc1C(=O)NCCCN [Ligand L11, 2-Methoxy-5-(3-phenylpyridin-5-yl)carboxamidobenzoic acid N-(3-aminopropyl)amide] | 95 | 94 | 1.7 | 100 | 89 | 78 | 75 | 89 | 79 | 56 |  |
| COc1ccc(NC(=O)c2cncc(-c3ccc(C(F)(F)F)cc3)c2)cc1C(=O)NCCCN [Ligand L12, 2-Methoxy-5-{3-[4-(trifluoromethyl)phenyl]pyridin-5-yl}carboxamidobenzoic acid N-(3-aminopropyl)amide] | 100 | 50 | 1.6 | 61 | 49 | 52 | 41 | 68 | 37 | 63 |  |
| COc1ccc(NC(=O)c2cncc(-c3cc4ccccc4s3)c2)cc1C(=O)NCCCN [Ligand L14, 5-[3-(2-Benzothienyl)pyridin-5-yl]carboxamido-2-methoxybenzoic acid N-(3-aminopropyl)amide] | 99 | 89 | 1.3 | 82 | 74 | 66 | 61 | 73 | 62 | 74 |  |
| COc1ccc(NC(=O)c2cn3ccsc3n2)cc1C(=O)NCCCC[C@H](NC(=O)c1cc(NC(=O)c2cn3ccsc3n2)ccc1OC)C(=O)NCCCN [Ligand L49, (S)-2,6-Bis[5-(Imidazo[2,1-b]thiazol-6-ylcarboxamido)-2-methoxyphenylcarboxamido]hexanoic acid (3-amino-1-propyl)amide] | 100 | 88 |  | 99 | 97 |  |  | 88 | 88 | 17 | 6.1 |
| COc1ccc(NC(=O)c2cn3ccsc3n2)cc1C(=O)NCCOCCOCC(=O)NCCCC[C@H](NC(=O)COCCOCCNC(=O)c1cc(NC(=O)c2cn3ccsc3n2)ccc1OC)C(=O)NCCCN [Ligand L50, (S)-2,6-Bis{8-[5-(Imidazo[2,1-b]thiazol-6-ylcarboxamido)-2-methoxyphenylcarboxamido]-3,6-dioxaoctanoylamido}hexanoic acid (3-amino-1-propyl)amide] | 100 | 92 |  | 100 | 100 |  |  | 91 | 91 | 15 | 6.9 |
| COc1ccc(NC(=O)c2nn(C)c3ccccc23)cc1C(=O)NCCOCCOCC(=O)NCCCN [Ligand L60, 8-[2-Methoxy-5-(1-methylindazol-3-ylcarboxamido)phenylcarboxamido]-3,6-dioxaoctanoic acid (3-amino-1-propyl)amide] | 100 | 82 | 3.3 | 93 | 93 |  |  | 95 | 94 | 30 |  |
| COc1ccc(NC(=O)c2cn3ccsc3n2)cc1C(=O)NCCCNC(=O)CC[C@H](N)C(=O)NCCCNC(=O)c1cc(NC(=O)c2cn3ccsc3n2)ccc1OC [Ligand L64, (S)-1-Aminopropane-1,3-dicarboxylic acid bis{3-[5-(imidazo[2,1-b]thiazol-6-ylcarboxamido)-2-methoxyphenylcarboxamido]propyl}amide] | 100 | 93 |  | 99 | 99 |  |  | 100 | 97 | 36 | 2.8 |
